Experiments:
Plasmopara viticola = experiment: Plasmopara test (vine)/protective; assay type: in vivo; details: protective, 100 g/ha, 6 days after inoculation, 0% = control, 100% = no infestation
Description: Plasmopara test (vine)/protective
Solvent: 47 parts by weight of acetone
Emulsifier: 3 parts by weight of alkylaryl polyglycol ether
(§1) To prepare an appropriate formulation of the active compound, 1 part by weight of active compound is mixed with the stated amounts of solvent and emulsifier, and the concentrate is diluted with water to the desired concentration.
To test for protective activity, young plants are sprayed with the formulation of the active compound in the stated application amount. After the spray coating has dried on, the plants are inoculated with an aqueous spore suspension of Plasmopara viticola and then remain in an incubation cabin at about 20° C. and 100% relative atmospheric humidity for 1 day. The plants are then placed in a greenhouse at about 21° C. and about 90% relative atmospheric humidity for 5 days. The plants are then moistened and placed in an incubation cabin for 1 day.
Evaluation is carried out 6 days after the inoculation. In this evaluation, 0% means a degree of action which corresponds to that of the control, while a degree of action of 100% means that no infestation is observed.

Leptosphaeria nodorum [1] = experiment: Leptosphaeria nodorum test (wheat)/protective; assay type: in vivo; details: protective, 250 g/ha, 10 days after inoculation, 0% = control, 100% = no infestation
Description: Leptosphaeria nodorum test (wheat)/protective
(§2) Solvent: 25 parts by weight of N,N-dimethylacetamide
(§3) Emulsifier: 0.6 part by weight of alkylaryl polyglycol ether
To test for appropriate formulation of the active compound, 1 part by weight of active compound is mixed with the stated amounts of solvent and emulsifier, and the concentrate is diluted with water to the desired concentration.
(§4) To test for protective activity, young plants are sprayed with the formulation of the active compound in the stated application amount. After the spray coating has dried on, the plants are sprayed with a spore suspension of Leptosphaeria nodorum. The plants remain in an incubation cabin at 20° C. and 100% relative atmospheric humidity for 48 hours.
The plants are placed in a greenhouse at a temperature of about 15° C. and a relative atmospheric humidity of 80%.
(§5) Evaluation is carried out 10 days after the inoculation. In this evaluation, 0% means a degree of action which corresponds to that of the control, while a degree of action of 100% means that no infestation is observed.

Puccinia = Puccinia test (wheat)/protective; assay type: in vivo; details: protective, 250 g/ha, 10 days after inoculation, 0% = control, 100% = no infestation
Description: Puccinia test (wheat)/protective
as §2, §3, §1
as §4, with “the conidia” for “a spore”, “Puccinia.” for “Leptosphaeria nodorum.”
The plants are then placed in a greenhouse at a temperature of about 20° C. and a relative atmospheric humidity of 80% in order to promote the development of rust pustules.
as §5

[2] = logP determination by HPLC (EEC Directive 79/831 Annex V. A8); assay type: physicochemical; details: acetonitrile/0.1% aqueous phosphoric acid, gradient method, acetonitrile/0.1% strength aqueous phosphoric acid
Description: The logP values were determined in accordance with EEC Directive 79/831 Annex V. A8 by HPLC (gradient method, acetonitrile/0.1% strength aqueous phosphoric acid)

Phytophthora infestans = assay type: in vivo; details: tomato, protective, 100 g/ha, 3 days after inoculation; 0% = control, 100% = no infestation
Puccinia recondite = experiment: Puccinia test (wheat)/curative; assay type: in vivo; details: curative, 250 g/ha, 10 days after inoculation, 0% = control, 100% = no infestation
Description: Puccinia test (wheat)/curative
Solvent: 10 parts by weight of N,N-dimethylacetamide
as §3, §1
To test for curative activity, young plants are sprayed with a conidia suspension of Puccinia recondite The plants remain in an incubation cabin at 20° C. and 100% relative atmospheric humidity for 48 hours. The plants are then sprayed with the active compound formulation in the stated application amount.
The plants are placed in a greenhouse at a temperature of about 20° C. and a relative atmospheric humidity of about 80% in order to promote the development of rust pustules.
as §5

Pyricularia oryzae = assay type: in vivo; details: rice, protective, 750 g/ha, 4 days after inoculation; 0% = control, 100% = no infestation
Leptosphaeria nodorum [3] = experiment: Leptosphaeria nodorum test (wheat)/curative; assay type: in vivo; details: curative, 250 g/ha, 10 days after inoculation, 0% = control, 100% = no infestation
Description: Leptosphaeria nodorum test (wheat)/curative
Solvent: 10 parts by weight of N-methyl-pyrrolidone
as §3, §1
To test for curative activity, young plants are sprayed with a conidia suspension of Leptosphaeria nodorum. The plants remain in an incubation cabin at 20° C. and 100% relative atmospheric humidity for 48 hours and are then sprayed with the formulation of the active compound in the stated application amount.
The plants are placed in a greenhouse at a temperature of about 15° C. and a relative atmospheric humidity of about 80%.
as §5

CON=C(C1=NOCCO1)c1ccccc1CSC(=Nc1ccc(OC)nc1)C1CC1 [Example 1]
degree of action (Plasmopara viticola): ≥ 90% | degree of action (Leptosphaeria nodorum [1]): ≥ 90% | degree of action (Puccinia): ≥ 90% | chromatographic logP [2]: 3.04 | degree of action (Phytophthora infestans): ≥ 90% | degree of action (Puccinia recondite): ≥ 100% | degree of action (Pyricularia oryzae): ≥ 70% | degree of action (Leptosphaeria nodorum [3]): ≥ 95%

CON=C(C1=NOCCO1)c1ccccc1CSC(=Nc1ccc(OC)cc1)C1CC1 [Example 2]
chromatographic logP [2]: 3.16 | degree of action (Pyricularia oryzae): ≥ 70%

CON=C(C1=NOCCO1)c1ccccc1CSC(=Nc1ccccc1C(F)(F)F)C1CC1 [Example 3]
chromatographic logP [2]: 4.16
